Blank lines part the entries; values can stand above or below the compound they belong to.
Columns and labels:
[1] = In vitro tetrazine stability (decrease of UV absorbance at 520 nm); assay type: physicochemical; settings: 10% MeCN/PBS; read-out: In vitro tetrazine stability (h), t1/2 (converted)
Description: The stability of tetrazines was evaluated by dissolving them in 10% MeCN/PBS at 37° C. and following the decrease of the tetrazine UV absorbance at 520 nm in time (Table 4).

[2] = Second-order reaction rate constant with TCO derivative by UV spectroscopy; assay type: physicochemical; settings: 25% MeCN/PBS at 20° C.
Description: The second-order reaction rate constants were calculated from the rate at which the absorption at 520 nm (specific for the TZ moiety) decreased (Table 4).

AVP0458-TCO-MMAE = test: MMAE release from diabody ADC with D8-MMAE internal standard (LC-SIM-MS); assay type: biochemical; settings: 10 equiv of tetrazine, PBS/plasma (1/1), 37° C., after 24 h, n=3
Description: In an alternative method MMAE release from diabody ADC (AVP0458-TCO-MMAE) was determined by using a deuterated internal standard D8-MMAE. ADC (1.1×10^−10 moles bound MMAE) and D8-MMAE (1.1×10^−10 moles) and 10 equiv of tetrazine were incubated in 100 uL PBS/plasma (1/1) at 37° C.

[3] = test system: LS174T human colon carcinoma cells; test: Cell proliferation (MTT) assay of ADCs with range of tetrazines; assay type: cell-based; settings: 3-day incubation; for cell growth inhibition, combination of ADC and activator: CC49-TCO-Dox 0.1 μM or AVP0458-TCO-MMAE 1 nM plus activator 1 μM; for cell growth inhibition, activators alone: activator 1 μM alone
Description: Cell proliferation was assessed after a 3-day incubation by means of an MTT assay and was expressed as the % of that obtained without treatment.

CC49-TCO-Dox [4] = test: In vitro Dox release from CC49-TCO-Dox in PBS; assay type: biochemical
Description: (§1) Doxorubicin (Dox) release from the TCO-linked ADC CC49-TCO-Dox with various TZ activators in PBS and 50% mouse serum at 37° C. was evaluated in vitro as described in Rossin et al. Bioconjug. […] The results of these experiments are depicted in Tables 3 (PBS) and 4 (mouse serum). The release reactions were performed in triplicate unless otherwise stated in the result table.

CC49-TCO-Dox [5] = test: In vitro Dox release from CC49-TCO-Dox in 50% mouse serum; assay type: biochemical
Description: as §1

half-life [1]: 6 h
Compound: Cc1nnc(-c2nccc(C(=O)O)n2)nn1 [Compound 4.23]
reactivity (k2) [2]: 246 M⁻¹ s⁻¹
induced MMAE release (%) from AVP0458-TCO-MMAE (AVP0458-TCO-MMAE): 69 ± 0.5%

half-life [1]: 13 h
Compound: COCCOCCOCCOCCOCCOCCOCCOCCOCCOCCOCC(=O)NCCCc1nnc(-c2ncccn2)nn1 [Compound 4.24]

half-life [1]: 13 h
Compound: Cc1nnc(-c2nccc(CNC(=O)CN(CCN(CC(=O)O)CC(=O)O)CC(=O)O)n2)nn1 [Compound 4.26]
reactivity (k2) [2]: 135 M⁻¹ s⁻¹
induced MMAE release (%) from AVP0458-TCO-MMAE (AVP0458-TCO-MMAE): 59 ± 0.6%
cell growth inhibition, combination of ADC and activator [3]: growth inhibition approached that achieved with the corresponding amount of free drug
cell growth inhibition, activators alone [3]: minimal cell growth inhibition

Compound: Cc1nnc(-c2nccc(CNC(=O)CCCC(=O)O)n2)nn1 [Compound 4.27]
induced MMAE release (%) from AVP0458-TCO-MMAE (AVP0458-TCO-MMAE): 66 ± 0.5%

Compound: CN(CCc1nnc(-c2ncccn2)nn1)C(=O)N1CCN(C(=O)c2ccc(F)cc2)CC1 [Compound 4.33, 4-(4-fluorobenzoyl)-N-methyl-N-(2-(6-(pyrimidin-2-yl)-1,2,4,5-tetrazin-3-yl)ethyl)piperazine-1-carboxamide]
induced MMAE release (%) from AVP0458-TCO-MMAE (AVP0458-TCO-MMAE): 53 ± 0.6%
cell growth inhibition, combination of ADC and activator [3]: growth inhibition approached that achieved with the corresponding amount of free drug
cell growth inhibition, activators alone [3]: minimal cell growth inhibition

Compound: CN(CCc1nnc(-c2ncccn2)nn1)C(=O)c1ccc(F)cc1 [Compound 4.35, 4-fluoro-N-methyl-N-(2-(6-(pyrimidin-2-yl)-1,2,4,5-tetrazin-3-yl)ethyl)benzamide]
induced MMAE release (%) from AVP0458-TCO-MMAE (AVP0458-TCO-MMAE): 67 ± 0.1%
cell growth inhibition, combination of ADC and activator [3]: growth inhibition approached that achieved with the corresponding amount of free drug
cell growth inhibition, activators alone [3]: minimal cell growth inhibition

Compound: O=C(O)CN1CCN(CC(=O)O)CCN(CC(=O)NCCOCCOCCOCCOCCOCCOCCOCCOCCOCCOCCOCCNC(=O)CCCC(=O)Nc2ccc(-c3nnc(-c4ccccn4)nn3)nc2)CCN(CC(=O)O)CC1 [Compound 5.1, 2,2′,2″-(10-(2,40,44-Trioxo-44-((6-(6-(pyridine-2-yl)-1,2,4,5-tetrazin-3-yl)pyridine-3-yl)amino)-6,9,12,15,18,21,24,27,30,33,36-undecaoxa-3,39-diazatetratetracontyl)-1,4,7,10-tetraazacyclododecane-1,4,7-triyl)triacetic acid]
In vitro Dox release (%) from CC49-Dox at 37° C. in PBS: 1 h (CC49-TCO-Dox [4]): 14.2%
In vitro Dox release (%) from CC49-Dox at 37° C. in PBS: 2 h (CC49-TCO-Dox [4]): 20.4%
In vitro Dox release (%) from CC49-Dox at 37° C. in PBS: 3 h (CC49-TCO-Dox [4]): 24.3%
In vitro Dox release (%) from CC49-Dox at 37° C. in PBS: 24 h (CC49-TCO-Dox [4]): 48.1%
In vitro Dox release (%) from CC49-Dox at 37° C. in PBS: 48 h (CC49-TCO-Dox [4]): 54.9%
In vitro Dox release (%) from CC49-Dox at 37° C. in 50% mouse serum: 1 h (CC49-TCO-Dox [5]): 13.7 ± 0.7%
In vitro Dox release (%) from CC49-Dox at 37° C. in 50% mouse serum: 2 h (CC49-TCO-Dox [5]): 15.2 ± 1.4%
In vitro Dox release (%) from CC49-Dox at 37° C. in 50% mouse serum: 3 h (CC49-TCO-Dox [5]): 14.8 ± 0.8%

Compound: O=C(O)CN1CCN(CC(=O)O)CCN(CC(=O)NCCOCCNC(=O)CCCC(=O)NCCCc2nnc(CCCNC(=O)CCCC(=O)NCCOCCNC(=O)CN3CCN(CC(=O)O)CCN(CC(=O)O)CCN(CC(=O)O)CC3)nn2)CCN(CC(=O)O)CC1 [Compound 5.3, Tz-bis-DOTA]
In vitro Dox release (%) from CC49-Dox at 37° C. in PBS: 1 h (CC49-TCO-Dox [4]): 50.5%
In vitro Dox release (%) from CC49-Dox at 37° C. in PBS: 2 h (CC49-TCO-Dox [4]): 59.3%
In vitro Dox release (%) from CC49-Dox at 37° C. in PBS: 3 h (CC49-TCO-Dox [4]): 62.5%
In vitro Dox release (%) from CC49-Dox at 37° C. in PBS: 24 h (CC49-TCO-Dox [4]): 80.3%
In vitro Dox release (%) from CC49-Dox at 37° C. in PBS: 48 h (CC49-TCO-Dox [4]): 91.2%
In vitro Dox release (%) from CC49-Dox at 37° C. in 50% mouse serum: 1 h (CC49-TCO-Dox [5]): 43.6 ± 3.5%
In vitro Dox release (%) from CC49-Dox at 37° C. in 50% mouse serum: 2 h (CC49-TCO-Dox [5]): 54.9 ± 6.0%
In vitro Dox release (%) from CC49-Dox at 37° C. in 50% mouse serum: 3 h (CC49-TCO-Dox [5]): 64.4 ± 3.3%
In vitro Dox release (%) from CC49-Dox at 37° C. in 50% mouse serum: 6 h (CC49-TCO-Dox [5]; 6 h): 67.5 ± 8.3%

Compound: NCCc1nnc(-c2nccc(CNC(=O)CCCC(=O)O)n2)nn1 [Compound 5.5]
induced MMAE release (%) from AVP0458-TCO-MMAE (AVP0458-TCO-MMAE): 81 ± 0.4%

Compound: NCCc1nnc(-c2nccc(CNC(=O)CCCC(=O)NC(CO)(CO)CO)n2)nn1 [Compound 5.8]
induced MMAE release (%) from AVP0458-TCO-MMAE (AVP0458-TCO-MMAE): 80 ± 0.5%

Reference: US20210299286A1, “TETRAZINES FOR HIGH CLICK CONJUGATION YIELD IN VIVO AND HIGH CLICK RELEASE YIELD” (Tagworks Pharmaceuticals B.V., priority 2018, published 2021)
